Test results taken from patent publication US12606541B2, “PPARg modulators and methods of use” (Eisai R&D Management Co., Ltd., priority 2020, dated 2026).

Experiments:
His6-TEV-PPARγ-(234-505) = target: T1, His6-TEV-PPARγ-(234-505) (Homo sapiens, UniProt P37231); assay: TR-FRET Assay to Measure Co-R Peptide Recruitment to PPARγ; format: biochemical; conditions: Co-R peptide (SMRT-ID2) recruitment; top final concentration 20 μM; read-out: TR-FRET i-Ag; AC50
T1 construct: The His6-TEV-PPARγ-(234-505) protein for assay was expressed and purified; TEV cleavage site (N); made in house
T1 sequence (P37231 234-505): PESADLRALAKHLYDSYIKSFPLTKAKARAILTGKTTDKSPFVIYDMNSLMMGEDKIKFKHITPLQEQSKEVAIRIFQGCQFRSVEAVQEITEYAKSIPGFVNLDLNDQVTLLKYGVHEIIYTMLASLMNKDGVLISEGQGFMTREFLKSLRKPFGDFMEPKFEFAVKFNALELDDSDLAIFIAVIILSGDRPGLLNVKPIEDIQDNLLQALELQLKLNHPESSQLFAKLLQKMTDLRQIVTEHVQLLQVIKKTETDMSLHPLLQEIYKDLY
How it was run: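 Corepressor recruitment is measured by adding terbium-labeled anti-His antibody and FITC SMRT-ID2 peptide, at 5 and 200 nM final, after a 20-minute room-temperature protein–compound incubation. After one further hour, signal is converted to percent response between DMSO and 500 nM T0070907 wells.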

UM-UC-9 engineered cells = assay: Cell proliferation / short-term viability assay, CellTiter-Glo 144 h; format: cell-based, human; conditions: Homo sapiens, UM-UC-9, 144 h, read-out: CTGlo 144 h UMUC9.5, G150
How it was run: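 Viability read by CellTiter-Glo 2.0 luminescence at day 7 versus DMSO-vehicle wells and a T0 plate measured on day 0. Cells: UM-UC-9 engineered assay-ready stocks, 500 cells/well in high-glucose DMEM with 10% FBS, 37° C, 5% CO2.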

Compound | AC50 (His6-TEV-PPARγ-(234-505)) [µM] | IC50 (UM-UC-9 engineered cells) [µM]
COc1cc(-c2cc(C(=O)N3CCC(C(=O)NCc4ncccc4Cl)CC3)n[nH]2)c(Cl)cn1 [Example 140, 1-(5-(5-chloro-2-methoxypyridin-4-yl)-1H-pyrazole-3-carbonyl)-N-((3-chloropyridin-2-yl)methyl)piperidine-4-carboxamide] | 0.0854 | 0.634
COc1cc(-c2cc(C(=O)N3CCC(C(=O)NCc4cc(C)n(C)n4)CC3)n[nH]2)c(Cl)cn1 [Example 141, 1-(5-(5-chloro-2-methoxypyridin-4-yl)-1H-pyrazole-3-carbonyl)-N-((1,5-dimethyl-1H-pyrazol-3-yl)methyl)piperidine-4-carboxamide] | 0.679 | 2.6
COc1cc(-c2cc(C(=O)N3CCC(C(=O)NC(C)COc4ccc(Cl)cc4)CC3)n[nH]2)c(Cl)cn1 (stereo not drawn) [Example 142, 1-(5-(5-chloro-2-methoxypyridin-4-yl)-1H-pyrazole-3-carbonyl)-N-(1-(4-chlorophenoxy)propan-2-yl)piperidine-4-carboxamide] | 0.903 | 3.14
COc1cc(-c2cc(C(=O)N3CCC(C(=O)NC4CCCC(F)(F)C4)CC3)n[nH]2)c(Cl)cn1 (stereo not drawn) [Example 143, 1-(5-(5-chloro-2-methoxypyridin-4-yl)-1H-pyrazole-3-carbonyl)-N-(3,3-difluorocyclohexyl)piperidine-4-carboxamide] | 0.91 | 3.31
COc1cc(-c2cc(C(=O)N3CCC(C(=O)NCc4ncccc4F)CC3)n[nH]2)c(Cl)cn1 [Example 146, 1-(5-(5-chloro-2-methoxypyridin-4-yl)-1H-pyrazole-3-carbonyl)-N-((3-fluoropyridin-2-yl)methyl)piperidine-4-carboxamide] | 0.262 | 1.41
COc1cc(-c2cc(C(=O)N3CCC(C(=O)Nc4cccc(C(F)F)c4)CC3)n[nH]2)c(Cl)cn1 [Example 147, 1-(5-(5-chloro-2-methoxypyridin-4-yl)-1H-pyrazole-3-carbonyl)-N-(3-(difluoromethyl)phenyl)piperidine-4-carboxamide] | 0.268 | 0.955
COc1cc(-c2cc(C(=O)N3CCC(C(=O)NCC4CC(F)(F)C4)CC3)n[nH]2)c(Cl)cn1 [Example 148, 1-(5-(5-chloro-2-methoxypyridin-4-yl)-1H-pyrazole-3-carbonyl)-N-((3,3-difluorocyclobutyl)methyl)piperidine-4-carboxamide] | 0.712 | 3.17
COc1cc(-c2cc(C(=O)N3CCC(C(=O)NCC(F)(F)c4ccccc4)CC3)n[nH]2)c(Cl)cn1 [Example 149, 1-(5-(5-chloro-2-methoxypyridin-4-yl)-1H-pyrazole-3-carbonyl)-N-(2,2-difluoro-2-phenylethyl)piperidine-4-carboxamide] | 0.0493 | 0.418
COc1cc(-c2cc(C(=O)N3CCC(C(=O)NCc4ccc(OC(F)F)cc4)CC3)n[nH]2)c(Cl)cn1 [Example 151, 1-(5-(5-chloro-2-methoxypyridin-4-yl)-1H-pyrazole-3-carbonyl)-N-(4-(difluoromethoxy)benzyl)piperidine-4-carboxamide] | 0.0481 | 0.539
COc1cc(-c2cc(C(=O)N3CCC(C(=O)NCc4ccc5ncoc5c4)CC3)n[nH]2)c(Cl)cn1 [Example 152] | 0.853 | 0.825
COc1cc(-c2cc(C(=O)N3CCC(C(=O)N[C@H](C)c4cccc(F)c4)CC3)n[nH]2)c(Cl)cn1 [Example 153, (R)-1-(5-(5-chloro-2-methoxypyridin-4-yl)-1H-pyrazole-3-carbonyl)-N-(1-(3-fluorophenyl)ethyl)piperidine-4-carboxamide] | 0.621 | 2.09
COc1cc(-c2cc(C(=O)N3CCC(C(=O)NCc4cc(Cl)ccc4F)CC3)n[nH]2)c(Cl)cn1 [Example 154, N-(5-chloro-2-fluorobenzyl)-1-(5-(5-chloro-2-methoxypyridin-4-yl)-1H-pyrazole-3-carbonyl)piperidine-4-carboxamide] | 0.0774 | 0.166
